In patent publication US20230009608A1, “GRK2 INHIBITORS AND USES THEREOF” (Cygnal Therapeutics, Inc., priority 2020, published 2023):
Like-named read-outs stand apart in the source and are kept apart here.

What was measured:
GRK2 = molecular target: T1, GRK2 (Homo sapiens, UniProt P25098); assay: GRK2 Inhibition Assay (TR-FRET, Example 7); type: biochemical
T1 construct: purchased SignalChem A14-10G
T1 sequence (P25098 1-689): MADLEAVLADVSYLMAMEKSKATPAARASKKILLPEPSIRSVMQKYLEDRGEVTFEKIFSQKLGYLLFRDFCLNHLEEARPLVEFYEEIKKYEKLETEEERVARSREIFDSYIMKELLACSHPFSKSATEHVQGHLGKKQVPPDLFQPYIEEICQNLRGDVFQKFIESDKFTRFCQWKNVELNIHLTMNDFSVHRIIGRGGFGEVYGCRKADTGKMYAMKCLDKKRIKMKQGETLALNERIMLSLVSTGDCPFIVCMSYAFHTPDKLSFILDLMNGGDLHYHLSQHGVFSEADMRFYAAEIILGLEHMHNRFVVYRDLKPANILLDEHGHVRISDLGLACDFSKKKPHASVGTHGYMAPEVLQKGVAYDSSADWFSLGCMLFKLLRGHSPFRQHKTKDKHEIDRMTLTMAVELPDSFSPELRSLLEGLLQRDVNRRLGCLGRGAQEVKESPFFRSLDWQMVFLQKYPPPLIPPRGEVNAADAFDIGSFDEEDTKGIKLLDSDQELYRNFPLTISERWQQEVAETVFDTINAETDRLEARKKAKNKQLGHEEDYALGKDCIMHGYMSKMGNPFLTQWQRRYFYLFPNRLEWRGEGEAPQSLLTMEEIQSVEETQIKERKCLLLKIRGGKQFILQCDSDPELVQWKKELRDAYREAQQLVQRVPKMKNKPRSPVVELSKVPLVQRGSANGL
Protocol: Enzyme GRK2 (1 nM final concentration) was diluted in 25 mMv HEPES, 10 mM MgCl2, 2 mM DTT, 0.01% Tween-20, and 1 mM EGTA. Then the GRK2 mixture was added into ProxiPlate-384 white plate and pre-incubated for 30 min with test compounds at room temperature. ATP (7 μM final concentration) and Ulight TopoIIα (50 nM final concentration) were added into the assay plate to initiate the reaction and the mixture was incubated at room temperature for 90 min. Then, Eu anti-TopoIIα (0.12 nM final concentration), BSA (0.01% final concentration), and EDTA (11 mMv final concentration) in LANCE assay buffer were added into each well. After 60 min incubation time at room temperature, TR-FRET signal was measured by EnVision plate reader.

[1] = system: PAXF1657 control empty vector cell line; assay: 7-day proliferation assay, PAXF1657 control empty vector cell line (Example 9); type: cell-based; conditions: 168 h; Cell Line: PAXF1657 empty vector (EV) cell line; 7-day; read-out: C: 7-day proliferation assay: IC50 GeoMean
Procedure, shortened: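 PAXF1657 pancreatic cancer cells (GRK2-overexpressing vs empty vector; CRISPR GRK2 knockout vs non-targeting control) were seeded at 500 cells/well in RPMI1640/10% FBS, then given a 10-point series, 30 μM-0.0002 μM in 0.3% DMSO. Medium and compound were refreshed after 3 days; CellTiter-Glo luminescence was read at day 7.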

[2] = Enzyme Assay B, TR-FRET (Example 7), read-out: B: Enzymatic GRK2: IC50 (nM) (Example 7)
[3] = TR-FRET GRK2 enzyme assay, read-out: B: Enzymatic GRK2: IC50 (nM) (Example 7)

Structure (SMILES) | IC50 (GRK2; [2]) | IC50 [1] | IC50 (GRK2) | IC50 (GRK2; [3])
CCCn1c(CNc2cncc(C(=O)NCc3ccccc3C(F)(F)F)c2)nnc1-c1ccncn1 | 30 nM | > 30000 nM |  | 
O=C(NCc1cccc(OS(=O)(=O)F)c1)c1cccc(NCc2nnc(-c3ccncc3)[nH]2)c1 |  | > 30000 nM | 26 nM | 
O=C(NCc1ccccc1OS(=O)(=O)F)c1cccc(NCc2nnc(-c3ccncc3)[nH]2)c1 |  | 7640 nM | 12 nM | 
O=C(NCCc1ccccc1OS(=O)(=O)F)c1cccc(NCc2nnc(-c3ccncc3)[nH]2)c1 |  | 13100 nM | 73 nM | 
O=C(NCc1ccc(OS(=O)(=O)F)cc1)c1cccc(NCc2nnc(-c3ccncc3)[nH]2)c1 |  | > 30000 nM | 20 nM | 
COc1ncccc1CNC(=O)c1cccc(NCc2nnc(-c3ccncc3)n2C)c1 | 15 nM | 810 nM |  | 
O=C(NCc1cccc2c1OCC2)c1cccc(NCc2nnc(-c3ccncc3)[nH]2)c1 | 2.9 nM | > 30000 nM |  | 
O=C(NCc1cccc(F)c1)c1cccc(NCc2nnc(-c3ccncc3)[nH]2)c1 | 6.1 nM | 14500 nM |  | 
O=C(N[C@H]1CCOc2ccccc21)c1cccc(NCc2nnc(-c3ccncc3)[nH]2)c1 | 2.1 nM | > 1760 nM |  | 
O=C(NCc1cccnc1C(F)(F)F)c1cccc(NCc2nnc(-c3ccncc3)[nH]2)c1 | 13 nM | > 30000 nM |  | 
COc1ccc(CNC(=O)c2cccc(NCc3nnc(-c4ccncc4)[nH]3)c2)c(F)c1 | 15 nM | 18800 nM |  | 
COc1cccc(OC)c1CNC(=O)c1cccc(NCc2nnc(-c3ccncc3)[nH]2)c1 | 1.4 nM | 981 nM |  | 
CCCn1c(CNc2cccc(C(=O)NCc3cccc4c3OCC4)c2)nnc1-c1ccncn1 | 2 nM | > 30000 nM |  | 
CCCn1c(CNc2cccc(C(=O)NCc3cccc(F)c3)c2)nnc1-c1ccncn1 | 5.3 nM | 19200 nM |  | 
CCCn1c(CNc2cccc(C(=O)N[C@H]3CCOc4ccccc43)c2)nnc1-c1ccncn1 | 2.3 nM | > 30000 nM |  | 
CCCn1c(CNc2cccc(C(=O)NCc3cccnc3C(F)(F)F)c2)nnc1-c1ccncn1 | 2.6 nM | 667 nM |  | 
CCCn1c(CNc2cccc(C(=O)NCc3ccc(OC)cc3F)c2)nnc1-c1ccncn1 | 2.1 nM | > 30000 nM |  | 
CCCn1c(CNc2cccc(C(=O)NCc3c(OC)cccc3OC)c2)nnc1-c1ccncn1 | 3.1 nM | > 30000 nM |  | 
CCCn1c(CNc2cccc(C(=O)NCc3ccccc3OCC)c2)nnc1-c1ccncn1 | 8.2 nM | > 30000 nM |  | 
CCCn1c(CNc2cccc(C(=O)NC3(c4ccccc4)CCOCC3)c2)nnc1-c1ccncn1 | 22 nM | 9260 nM |  | 

Structure (SMILES) | IC50 (GRK2; [2]) | IC50 [1] | IC50 (GRK2) | IC50 (GRK2; [3])
CCCn1c(CNc2cccc(C(=O)NCc3cccnc3OC)c2)nnc1-c1ccncn1 | 3.8 nM | > 30000 nM |  | 
O=C(NCc1cccc2c1OCC2)c1cccc(NCc2nnc3n2CCOc2cnccc2-3)c1 | 2.4 nM | 3010 nM |  | 
O=C(NCc1cccc(F)c1)c1cccc(NCc2nnc3n2CCOc2cnccc2-3)c1 | 3.7 nM | 7020 nM |  | 
O=C(N[C@H]1CCOc2ccccc21)c1cccc(NCc2nnc3n2CCOc2cnccc2-3)c1 | 2.6 nM | > 30000 nM |  | 
O=C(NCc1cccnc1C(F)(F)F)c1cccc(NCc2nnc3n2CCOc2cnccc2-3)c1 | 3.5 nM | 6570 nM |  | 
COc1ccc(CNC(=O)c2cccc(NCc3nnc4n3CCOc3cnccc3-4)c2)c(F)c1 | 1.6 nM | > 30000 nM |  | 
COc1cccc(OC)c1CNC(=O)c1cccc(NCc2nnc3n2CCOc2cnccc2-3)c1 | 6.7 nM | > 30000 nM |  | 
CCOc1ccccc1CNC(=O)c1cccc(NCc2nnc3n2CCOc2cnccc2-3)c1 | 9.1 nM | 2320 nM |  | 
O=C(NC1(c2ccccc2)CCOCC1)c1cccc(NCc2nnc3n2CCOc2cnccc2-3)c1 | 39 nM | 20300 nM |  | 
COc1ncccc1CNC(=O)c1cccc(NCc2nnc3n2CCOc2cnccc2-3)c1 | 7.5 nM | > 30000 nM |  | 
O=C(NCc1cccc2c1OCC2)c1cccc(NCc2nnc(-c3ccncc3)n2CCO)c1 | 6.3 nM | 6080 nM |  | 
O=C(NCc1cccc(F)c1)c1cccc(NCc2nnc(-c3ccncc3)n2CCO)c1 | 9.2 nM | > 30000 nM |  | 
O=C(N[C@H]1CCOc2ccccc21)c1cccc(NCc2nnc(-c3ccncc3)n2CCO)c1 | 8.2 nM | 4580 nM |  | 
O=C(NCc1cccnc1C(F)(F)F)c1cccc(NCc2nnc(-c3ccncc3)n2CCO)c1 | 5.2 nM | > 30000 nM |  | 
COc1ccc(CNC(=O)c2cccc(NCc3nnc(-c4ccncc4)n3CCO)c2)c(F)c1 | 4.9 nM | > 30000 nM |  | 
COc1cccc(OC)c1CNC(=O)c1cccc(NCc2nnc(-c3ccncc3)n2CCO)c1 | 23 nM | > 30000 nM |  | 
CCOc1ccccc1CNC(=O)c1cccc(NCc2nnc(-c3ccncc3)n2CCO)c1 | 19 nM | 6310 nM |  | 
O=C(NCc1ccccc1OS(=O)(=O)F)c1cccc(NCc2nnc(-c3ccncc3)n2CCCO)c1 |  | > 30000 nM | 17 nM | 
O=C(NCc1cccc(OS(=O)(=O)F)c1)c1cccc(NCc2nnc(-c3ccncc3)n2CCCO)c1 |  | > 30000 nM | 50 nM | 
Cn1c(CNc2cccc(C(=O)N[C@H]3CCOc4cc(Cl)ccc43)c2)nnc1-c1ccncn1 | 18 nM | > 29400 nM |  | 

Structure (SMILES) | IC50 (GRK2; [2]) | IC50 [1] | IC50 (GRK2) | IC50 (GRK2; [3])
Cc1ccc2c(c1)[C@H](NC(=O)c1cccc(NCc3nnc(-c4ccncn4)n3C)c1)CC(C)(C)O2 | 48 nM | > 30000 nM |  | 
Cc1ccc2c(c1)[C@@H](NC(=O)c1cccc(NCc3nnc(-c4ccncn4)n3C)c1)CC(C)(C)O2 | 240 nM | > 30000 nM |  | 
Cn1c(CNc2cccc(C(=O)N[C@@H]3CCOc4ccc(Br)cc43)c2)nnc1-c1ccncn1 | 510 nM | > 30000 nM |  | 
Cn1c(CNc2cccc(C(=O)N[C@H]3CCOc4ccc(Br)cc43)c2)nnc1-c1ccncn1 | 2.6 nM | 42.6 nM |  | 
Cn1c(CNc2cccc(C(=O)N[C@@H]3CCOc4ccc(Cl)cc43)c2)nnc1-c1ccncn1 | 2.9 nM | 33.9 nM |  | 
Cn1c(CNc2cccc(C(=O)N[C@H]3CCOc4ccc(Cl)cc43)c2)nnc1-c1ccncn1 | 120 nM | > 30000 nM |  | 
Cn1c(CNc2cccc(C(=O)N[C@@H]3CCOc4c3ccc(F)c4F)c2)nnc1-c1ccncn1 | 3.3 nM | 178 nM |  | 
Cn1c(CNc2cccc(C(=O)N[C@H]3CCOc4c3ccc(F)c4F)c2)nnc1-c1ccncn1 | 1500 nM | > 30000 nM |  | 
Cn1c(CNc2cccc(C(=O)N[C@@H]3CCOc4cc(F)ccc43)c2)nnc1-c1ccncn1 | 1900 nM | 168 nM |  | 
Cn1c(CNc2cccc(C(=O)N[C@H]3CCOc4cc(F)ccc43)c2)nnc1-c1ccncn1 | 6.4 nM | > 30000 nM |  | 
Cn1c(CNc2cccc(C(=O)N[C@@H]3CCOc4ccc(F)cc43)c2)nnc1-c1ccncn1 | 2 nM | 96.2 nM |  | 
Cn1c(CNc2cccc(C(=O)N[C@H]3CCOc4ccc(F)cc43)c2)nnc1-c1ccncn1 | 24 nM | > 30000 nM |  | 
Cn1c(CNc2cccc(C(=O)N[C@@H]3CC(C)(C)Oc4ccccc43)c2)nnc1-c1ccncn1 | 45 nM | 9090 nM |  | 
Cn1c(CNc2cccc(C(=O)N[C@H]3CC(C)(C)Oc4ccccc43)c2)nnc1-c1ccncn1 | 30 nM | > 30000 nM |  | 
Cn1c(CNc2cccc(C(=O)N[C@@H]3CCOc4c3cccc4C(F)(F)F)c2)nnc1-c1ccncn1 | 3.8 nM | > 972 nM |  | 
Cn1c(CNc2cccc(C(=O)N[C@H]3CCOc4c3cccc4C(F)(F)F)c2)nnc1-c1ccncn1 | 9.7 nM | > 30000 nM |  | 
Cn1c(CNc2cccc(C(=O)N[C@@H]3CCOc4cc(C(F)(F)F)ccc43)c2)nnc1-c1ccncn1 | 56 nM | 93.2 nM |  | 
CCc1cnccc1CNC(=O)c1cccc(NCc2nnc(-c3ccncn3)n2[C@@H]2CC[C@@H](NC)C2)c1 |  |  |  | 230 nM
CCc1cnccc1CNC(=O)c1cccc(NCc2nnc(-c3ccncn3)n2[C@@H]2CC[C@H](NC)C2)c1 |  |  |  | 110 nM
Cn1c(CNc2cccc(C(=O)N[C@H]3COc4ccccc43)c2)nnc1-c1ccncn1 [drawing 850] |  |  |  | 3.4 nM
